Measured values: patent US20110301087A1, “CRF1 RECEPTOR COMPOUNDS” (priority 2008, published 2011)
Where a SMILES comes first, the peptide text is derived from it. The star is where a group is joined. Palmitoyl = CCCCCCCCCCCCCCCC(=O)*

Target: T1, CRF1 (Homo sapiens, UniProt P34998)
T1 construct: endogenously expresses functional CRF1; endogenous in cells; host or cells: Y-79 human retinoblastoma cells
T1 sequence (P34998 24-415): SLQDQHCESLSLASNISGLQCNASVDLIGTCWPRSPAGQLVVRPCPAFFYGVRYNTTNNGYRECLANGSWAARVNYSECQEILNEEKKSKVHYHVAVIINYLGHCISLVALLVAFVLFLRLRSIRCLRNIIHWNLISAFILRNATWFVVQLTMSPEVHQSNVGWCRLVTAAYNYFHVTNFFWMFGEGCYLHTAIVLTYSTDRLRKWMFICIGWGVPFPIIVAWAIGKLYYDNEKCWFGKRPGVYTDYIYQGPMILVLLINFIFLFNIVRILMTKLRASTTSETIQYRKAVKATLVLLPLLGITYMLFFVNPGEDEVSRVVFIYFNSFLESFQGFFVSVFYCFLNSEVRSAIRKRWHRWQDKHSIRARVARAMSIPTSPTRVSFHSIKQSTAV
Experiment: CRF1 assessment of cAMP (HTRF cAMP assay) in Y-79 cells, antagonist mode
Assay type: cell-based
Conditions: Y79 cells; for IC50: CRF1 cAMP screening, against agonist; for inhibition at 0.3 µM: 300 nM pepducin against agonist dose response, read-out: % Inhibition (± SD)
Source text: HTRF (homogeneous time resolved fluorescence) is a technology developed by Cisbio Bioassays based on TR-FRET (time-resolved fluorescence resonance energy transfer). Cisbio Bioassays has developed a wide selection of HTRF-based assays compatible with whole cells, thereby enabling functional assays run under more physiological conditions. cAMP kits are based on a competitive immunoassay using cryptate-labeled anti-cAMP antibody and d2-labeled cAMP. This assay allows the measurement of increase in intracellular cAMP upon Gs-coupled receptor activation as well as decrease in forskolin stimulated increase in cAMP upon Gi-coupled receptor activation. Cells expressing CRF1 endogenously or via transfection can be used to assess compound pharmacology using cAMP assays as a means to measure the activity of adenylyl cyclase resulting from CRF1 activation or inhibition.
An example of the use of the cAMP assay can be assessing CRF activation of CRF1 in Y-79, a human retinoblastoma cell line which endogenously expresses functional CRF1. Y-79 cells were seeded into 96-well half area black plates at 30K/well in Hank's balanced salt solution with 50 mM HEPES, 0.1% BSA, 200 uM IBMX. Compounds to be tested for agonist activity were added to cells, incubated for 30 minutes at 37 degrees C. and assayed for cAMP concentration. To test for antagonist activity, compounds to be tested were added to cells, followed by the addition of agonist at an experimentally determined optimal concentration, generally the EC80. Plates were incubated for 30 minutes at 37 degrees C. and assayed for cAMP. To determine concentration of cAMP in each well, d2-labeled cAMP in Conjugate/Lysis buffer was added to wells. This addition lysed the cells and input a known concentration of labeled cAMP. This was followed by the addition of anti-cAMP antibody conjugated to cryptate. FRET occurs when cryptate-labeled antibody binds to d2-labeled cAMP. Therefore, the specific signal is inversely proportional to the concentration of cAMP in the sample. Conversion of signal to concentration of cAMP in the well was accomplished by comparing the FRET signal of sample to a standard curve generated using known concentrations of cAMP.

SMILES | IC50 | inhibition at 0.3 µM
CCCCCCCCCCCCCCCC(=O)N[C@@H](CCCNC(=N)N)C(=O)N[C@@H](CC(C)C)C(=O)N[C@@H](CCCNC(=N)N)C(=O)N[C@@H](CO)C(=O)N[C@H](C(=O)N[C@@H](CCCNC(=N)N)C(=O)N[C@@H](CO)C(=O)N[C@@H](CC(C)C)C(=O)N[C@@H](CCCNC(=N)N)C(=O)N[C@@H](CC(N)=O)C(=O)N[C@H](C(=O)N[C@H](C(=O)N[C@@H](Cc1c[nH]cn1)C(=O)N[C@@H](Cc1c[nH]c2ccccc12)C(=O)N[C@@H](CC(N)=O)C(N)=O)[C@@H](C)CC)[C@@H](C)CC)[C@@H](C)CC [Compound 5] (Palmitoyl-RLRSIRSLRNIIHWN-NH2) | 1000 to 5000 nM | 54 ± 13%
CCCCCCCCCCCCCCCC(=O)NCC(=O)N[C@@H](CO)C(=O)NCC(=O)N[C@@H](CCCNC(=N)N)C(=O)N[C@@H](CC(C)C)C(=O)N[C@@H](CCCNC(=N)N)C(=O)N[C@@H](CCCCN)C(=O)N[C@@H](Cc1c[nH]c2ccccc12)C(=O)N[C@@H](CCSC)C(=O)N[C@@H](Cc1ccccc1)C(=O)N[C@H](C(N)=O)[C@@H](C)CC [Compound 26] (Palmitoyl-GSGRLRKWMFI-NH2) | 1000 to 5000 nM | 63%
CCCCCCCCCCCCCCCC(=O)NCC(=O)N[C@@H](CO)C(=O)N[C@@H](CCCNC(=N)N)C(=O)N[C@@H](CC(C)C)C(=O)N[C@@H](CCCNC(=N)N)C(=O)N[C@@H](CCCCN)C(=O)N[C@@H](Cc1c[nH]c2ccccc12)C(=O)N[C@@H](CCSC)C(=O)N[C@@H](Cc1ccccc1)C(=O)N[C@H](C(N)=O)[C@@H](C)CC [Compound 28] (Palmitoyl-GSRLRKWMFI-NH2) | 1000 to 5000 nM | 52 ± 5%
CCCCCCCCCCCCCCCC(=O)NCC(=O)N[C@@H](CO)C(=O)N[C@H](C(=O)N[C@@H](CC(=O)O)C(=O)N[C@@H](CCCNC(=N)N)C(=O)N[C@@H](CC(C)C)C(=O)N[C@@H](CCCNC(=N)N)C(=O)N[C@@H](CCCCN)C(=O)N[C@@H](Cc1c[nH]c2ccccc12)C(=O)N[C@@H](CCSC)C(=O)N[C@@H](Cc1ccccc1)C(=O)N[C@H](C(N)=O)[C@@H](C)CC)[C@@H](C)O [Compound 29, Pal-GSTDRLRKWMFI-amide] (Palmitoyl-GSTDRLRKWMFI-NH2) | 501 to 1000 nM | 53 ± 14%
CCCCCCCCCCCCCCCC(=O)N[C@@H](CCCNC(=N)N)C(=O)N[C@@H](CC(C)C)C(=O)N[C@@H](CCCNC(=N)N)C(=O)N[C@@H](CCCCN)C(=O)N[C@@H](Cc1c[nH]c2ccccc12)C(=O)N[C@@H](CCSC)C(=O)N[C@@H](Cc1ccccc1)C(=O)N[C@H](C(N)=O)[C@@H](C)CC [Compound 30] (Palmitoyl-RLRKWMFI-NH2) | 1000 to 5000 nM | 39 ± 7%
CCCCCCCCCCCCCCCC(=O)N[C@@H](CC(=O)O)C(=O)N[C@@H](CCCNC(=N)N)C(=O)N[C@@H](CC(C)C)C(=O)N[C@@H](CCCNC(=N)N)C(=O)N[C@@H](CCCCN)C(=O)N[C@@H](Cc1c[nH]c2ccccc12)C(=O)N[C@@H](CCSC)C(=O)N[C@@H](Cc1ccccc1)C(=O)N[C@H](C(N)=O)[C@@H](C)CC [Compound 31] (Palmitoyl-DRLRKWMFI-NH2) | 1000 to 5000 nM | 30 ± 17%
CCCCCCCCCCCCCCCC(=O)N[C@H](C(=O)N[C@@H](CC(=O)O)C(=O)N[C@@H](CCCNC(=N)N)C(=O)N[C@@H](CC(C)C)C(=O)N[C@@H](CCCNC(=N)N)C(=O)N[C@@H](CCCCN)C(=O)N[C@@H](Cc1c[nH]c2ccccc12)C(=O)N[C@@H](CCSC)C(=O)N[C@@H](Cc1ccccc1)C(=O)N[C@H](C(N)=O)[C@@H](C)CC)[C@@H](C)O [Compound 32, Pal-TDRLRKWMFI-amide] (Palmitoyl-TDRLRKWMFI-NH2) | 501 to 1000 nM | 53 ± 9%
CCCCCCCCCCCCCCCC(=O)N[C@@H](CO)C(=O)N[C@H](C(=O)N[C@@H](CC(=O)O)C(=O)N[C@@H](CCCNC(=N)N)C(=O)N[C@@H](CC(C)C)C(=O)N[C@@H](CCCNC(=N)N)C(=O)N[C@@H](CCCCN)C(=O)N[C@@H](Cc1c[nH]c2ccccc12)C(=O)N[C@@H](CCSC)C(=O)N[C@@H](Cc1ccccc1)C(=O)N[C@H](C(N)=O)[C@@H](C)CC)[C@@H](C)O [Compound 33] (Palmitoyl-STDRLRKWMFI-NH2) | 1000 to 5000 nM | 36 ± 9%
CCCCCCCCCCCCCCCC(=O)N[C@@H](Cc1ccc(O)cc1)C(=O)N[C@@H](CO)C(=O)N[C@H](C(=O)N[C@@H](CC(=O)O)C(=O)N[C@@H](CCCNC(=N)N)C(=O)N[C@@H](CC(C)C)C(=O)N[C@@H](CCCNC(=N)N)C(=O)N[C@@H](CCCCN)C(=O)N[C@@H](Cc1c[nH]c2ccccc12)C(=O)N[C@@H](CCSC)C(=O)N[C@@H](Cc1ccccc1)C(=O)N[C@H](C(N)=O)[C@@H](C)CC)[C@@H](C)O [Compound 34] (Palmitoyl-YSTDRLRKWMFI-NH2) | 501 to 1000 nM | 21 ± 5%
CCCCCCCCCCCCCCCC(=O)NCC(=O)N[C@@H](CO)C(=O)N[C@H](C(=O)N[C@@H](CC(=O)O)C(=O)N[C@@H](CCCNC(=N)N)C(=O)N[C@@H](CC(C)C)C(=O)N[C@@H](CCCNC(=N)N)C(=O)N[C@@H](CCCCN)C(=O)N[C@@H](Cc1c[nH]c2ccccc12)C(=O)N[C@@H](CCSC)C(=O)N[C@@H](Cc1ccccc1)C(=O)N[C@@H](C)C(N)=O)[C@@H](C)O [Compound 37] (Palmitoyl-GSTDRLRKWMFA-NH2) | 1000 to 5000 nM | 45 ± 19%
CCCCCCCCCCCCCCCC(=O)NCC(=O)N[C@@H](CO)C(=O)N[C@H](C(=O)N[C@@H](CC(=O)O)C(=O)N[C@@H](CCCNC(=N)N)C(=O)N[C@@H](CC(C)C)C(=O)N[C@@H](CCCNC(=N)N)C(=O)N[C@@H](CCCCN)C(=O)N[C@@H](Cc1c[nH]c2ccccc12)C(=O)N[C@@H](CCSC)C(=O)N[C@@H](C)C(=O)N[C@H](C(N)=O)[C@@H](C)CC)[C@@H](C)O [Compound 38] (Palmitoyl-GSTDRLRKWMAI-NH2) | 1000 to 5000 nM | 60 ± 8%
CCCCCCCCCCCCCCCC(=O)NCC(=O)N[C@@H](CO)C(=O)N[C@H](C(=O)N[C@@H](CC(=O)O)C(=O)N[C@@H](CCCNC(=N)N)C(=O)N[C@@H](CC(C)C)C(=O)N[C@@H](CCCNC(=N)N)C(=O)N[C@@H](CCCCN)C(=O)N[C@@H](C)C(=O)N[C@@H](CCSC)C(=O)N[C@@H](Cc1ccccc1)C(=O)N[C@H](C(N)=O)[C@@H](C)CC)[C@@H](C)O [Compound 40] (Palmitoyl-GSTDRLRKAMFI-NH2) | 501 to 1000 nM | 61 ± 20%
CCCCCCCCCCCCCCCC(=O)N[C@@H](CCCNC(=N)N)C(=O)N[C@@H](CC(C)C)C(=O)N[C@@H](CCCNC(=N)N)C(=O)N[C@@H](CCCCN)C(=O)N[C@@H](Cc1c[nH]c2ccccc12)C(=O)N[C@@H](CCSC)C(=O)N[C@@H](C)C(=O)N[C@H](C(N)=O)[C@@H](C)CC [Compound 41] (Palmitoyl-RLRKWMAI-NH2) | 501 to 1000 nM | 40%
CCCCCCCCCCCCCCCC(=O)N[C@@H](CC(=O)O)C(=O)N[C@@H](CCCNC(=N)N)C(=O)N[C@@H](CC(C)C)C(=O)N[C@@H](CCCNC(=N)N)C(=O)N[C@@H](CCCCN)C(=O)N[C@@H](Cc1c[nH]c2ccccc12)C(=O)N[C@@H](CCSC)C(=O)N[C@@H](C)C(=O)N[C@H](C(N)=O)[C@@H](C)CC [Compound 42] (Palmitoyl-DRLRKWMAI-NH2) | 5000 to 10000 nM | 65%
